Holding throughout (assay type): functional
For test [1], the system named is Oryza sativa. In words: Compound was tested for its activity in rice stem elongation test at a concentration of 1 uM Stem length was measured after 7 days of transplantation.
For test [2], the system named is Lepidium sativum. In words: Inhibitory activity on cress growth at a concentration of 0.05 uM.
Test [3] deals with Lepidium sativum. In words: Inhibitory activity on cress growth at a concentration of 1 uM.
The subject of test [4] is Lepidium sativum. The experiment in a line: Inhibitory activity on cress growth at a concentration of 0.5 uM.
Test [5] relates to Lepidium sativum. The experiment in a line: Inhibitory activity on cress growth at a concentration of 0.1 uM.
Test [6] concerns Lepidium sativum. In words: Inhibitory activity on cress growth at a concentration of 5 uM.

10 molecules from ChEMBL document CHEMBL1131929, “New lead compounds for brassinosteroid biosynthesis inhibitors” (1999) can be followed below.

`OC(c1ccccc1)C(Cc1ccc(Cl)cc1)n1cncn1` (centres undefined) showed a Rice stem length in test [1] of around 2.6 cm.
Turning to `OC(/C(=C\c1ccc(Cl)cc1)n1cncn1)c1ccccc1` (centres undefined), the Hypocotyl length in test [2] is around 2 cm; in test [3], around 0.75 cm; in test [4] it was 1 cm; in test [5], 1.75 cm. The Rice stem length in test [1] amounted to 2.7 cm.
Regarding `CC(C)(C)C(O)/C(=C\c1ccc(Cl)cc1Cl)n1cncn1` (centres undefined), in test [1], the Rice stem length is 1.2 cm.
For `CC(C)(C)C(O)/C(=C\c1ccc(Cl)cc1)n1cncn1` (centres undefined), the Hypocotyl length is given as 1 cm in test [2]; 0.5 cm in test [6]; around 0.51 cm in test [3]; around 0.51 cm in test [4]; around 0.52 cm in test [5]. In test [1], the Rice stem length is listed as 1.4 cm.
`CC(C)(C)C(O)C(CCCOc1ccccc1)n1cncn1` (centres undefined): the Rice stem length in test [1] amounted to 2.1 cm.
For the molecule `CC(O)(c1ccccc1)C(Cc1ccc(Cl)cc1)n1cncn1` (centres undefined), the Hypocotyl length in test [2] is recorded as around 2 cm; in test [6] it was 0.5 cm; in test [3], 0.75 cm; in test [4], 1.25 cm; in test [5], around 2.25 cm. This molecule yielded a Rice stem length in test [1] of around 2.7 cm.
In test [1], `CCCCOc1ccc(/C=C(\C(O)C(C)(C)C)n2cncn2)cc1` (centres undefined) displayed a Rice stem length of 2.4 cm.
For the molecule `CC(C)(C)C(O)C(CCc1ccccc1)n1cncn1` (centres undefined), the Rice stem length in test [1] was around 2 cm.
On the same count and under the same terms, the figure for `COc1cccc(/C=C(\C(O)C(C)(C)C)n2cncn2)c1` (centres undefined) is 2.7 cm.
In turn, `CC(C)(C)C(O)C(Cc1ccc(Cl)cc1)n1cncn1` (centres undefined) yielded a Rice stem length in test [1] of 1 cm.
